Measured values from ChEMBL document CHEMBL1154399, “Induction of voriconazole metabolism by rifampin in a patient with acute myeloid leukemia: importance of interdisciplinary communication to prevent treatment errors with complex medications” (Antimicrob Agents Chemother, 2007).

How the values were obtained:
Format in all cases: ADME, organism-based
Homo sapiens [1] = experiment: Induction of voriconazole metabolism in po dosed […] infection patient assessed as increase in voriconazole N-oxide metabolite levels after 30 days; details: in vivo, 720 h
Homo sapiens [2] = experiment: Induction of voriconazole metabolism in po dosed […] infection patient assessed as increase in hydroxyvoriconazole levels after 30 days; details: in vivo, 720 h
Homo sapiens [3] = experiment: Induction of voriconazole metabolism in po dosed […] infection patient assessed as increase in dihydroxyvoriconazole levels after 30 days; details: in vivo, 720 h
Homo sapiens [4] = experiment: Effect on voriconazole metabolism in po dosed […] infection patient assessed as decrease in voriconazole exposure levels after 30 days; parameters: scale not given: the % may be the effect or the level left; details: in vivo, 720 h
[5] = AUC (0 to infinity) in […] infection patient at 400 mg, po administered daily after 36 days of drug therapy and 30 days of rifampin coadministration; parameters: dose 400 mg, route oral, time infinity; details: human, plasma
[6] = Cmax in […] infection patient at 400 mg, po administered daily after 36 days of drug therapy and 30 days of rifampin coadministration; parameters: dose 400 mg, route oral; details: human, in vivo
[7] = Cmax in […] infection patient at 400 mg, po administered daily; parameters: dose 400 mg, route oral; details: human, in vivo
[8] = AUC (0 to infinity) in […] infection patient at 400 mg, po administered daily; parameters: dose 400 mg, route oral, time infinity; details: human, plasma

Compound | fold change (FC) (Homo sapiens [1]) | fold change (FC) (Homo sapiens [2]) | fold change (FC) (Homo sapiens [3]) | Activity (Homo sapiens [4]) [%] | AUC(0-inf) [5] [ng·h/mL] | Cmax [6] [ng/mL] | Cmax [7] [ng/mL] | AUC(0-inf) [8] [ng·h/mL]
CO[C@H]1/C=C/O[C@@]2(C)Oc3c(C)c(O)c4c(O)c(c(/C=N/N5CCN(C)CC5)c(O)c4c3C2=O)NC(=O)/C(C)=C\C=C\[C@H](C)[C@H](O)[C@@H](C)[C@@H](O)[C@@H](C)[C@H](OC(C)=O)[C@@H]1C [RIFAMPIN] | 45 | 178 | 422 | 99 |  |  |  | 
C[C@@H](c1ncncc1F)[C@](O)(Cn1cncn1)c1ccc(F)cc1F [VORICONAZOLE] |  |  |  |  | 145 | 38 | 3920 | 27400
